From US20250388605A1, “HETEROBIFUNCTIONAL COMPOUNDS AND METHODS OF TREATING DISEASE” (Halda Therapeutics OpCo, Inc., priority 2022, published 2025)

How the values were obtained:
[1] = tested on: T-Rex 293 cell line SC3 cells having increased expression of androgen receptor protein due to exposure to doxycycline; assay: Cellular growth inhibition, T-Rex 293 SC3 cells with doxycycline (increased androgen receptor expression), CellTiter-Glo; type: cell-based; settings: T-Rex 293 SC3 cells with 10 ng/mL doxycycline (increased androgen receptor expression), 72 hours, CellTiter-Glo 2.0
Method in brief: (§1)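 Doxycycline (10 ng/mL) was either included or omitted to toggle wild-type androgen receptor expression in SC3 cells, a T-Rex 293 clone, grown in stripped-serum, phenol red-free medium. After 72 hours with compound, viable cells were quantified by CellTiter-Glo 2.0.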

[2] = tested on: VCaP cells; assay: Cellular growth inhibition assay for VCaP cells, CellTiter-Glo; type: cell-based, human; settings: 72 hours
Method in brief: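 GI50 values come from four-parameter curve fits of luminescence data normalized to a zero baseline. Compound, in medium with 0.5% DMSO, was added one day after plating and left for 72 h before CellTiter-Glo 2.0 addition.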

[3] = tested on: T-Rex 293 cell line SC3 cells lacking increased expression of androgen receptor protein; assay: Cellular growth inhibition, T-Rex 293 SC3 cells without doxycycline (no increased androgen receptor expression), CellTiter-Glo; type: cell-based; settings: T-Rex 293 SC3 cells not exposed to doxycycline (no increased androgen receptor expression), 72 hours
Method in brief: as §1

[4] = tested on: T47D cells; assay: Cellular Growth Inhibition Assay for T47D Cells (CellTiter-Glo); type: cell-based, human; settings: 72 hours
Description: Exemplary compounds were tested for ability to inhibit the proliferation of T47D cells. T47D cells are a commercially available human breast cancer cell line.
T47D cells were purchased from American Type Cell Culture (ATCC Cat #HTB-133) and then seeded on poly-D-lysine coated, black clear-bottom 384-well plates at 3000/well in 25 μL Dulbecco's Modified Eagle Medium (DMEM) supplemented with 10% w/w Fetal bovine serum (FBS), 0.2 units/mL recombinant human insulin (Gibco Cat #12585014), and 1% w/w Pen-Strep. Pen-Strep is a commercially available mixture of penicillin G and streptomycin, which is used in mammalian cell culture media to prevent bacterial contamination. Dulbecco's Modified Eagle Medium (DMEM) supplemented with 10% w/w fetal bovine serum (FBS), 0.2 units/mL recombinant human insulin, and 1% w/w Pen-Strep is herein referred to as Treatment Medium. Following seeding of cells in the plates, the plates were spun at 300×g for 30 seconds, then equilibrated to room temperature for 30 minutes, and then deposited in a humidified tissue culture incubator maintained at 37° C. with 5% CO2.
At 24 hours after seeding of the cells, dilutions of test compound were prepared in DMSO and dissolved in Treatment Medium, to achieve a final DMSO concentration of 0.5% w/w, thereby providing the Test Compound Solution. A 25 μL aliquot of the Test Compound Solution was added to cells in the well plates. An equal volume of a solution containing DMSO and Treatment Medium was used as a negative control. Following treatment of cells with Test Compound Solution or said equal volume of a solution containing DMSO and Treatment Medium, the plates were spun at 300×g for 30 seconds, and then left in an incubator for 72 hours.
At the end of the treatment duration, cell viability was quantified with CellTiter-Glo 2.0 reagent (Promega Cat #G9243). For this purpose, plates were equilibrated to room temperature for 30 minutes, and then 25 μL of CellTiter-Glo 2.0 reagent was added to cells in the plate wells. Plates were then agitated on a shaker for two minutes at 500 rpm and subsequently incubated at room temperature for 10 minutes. Following incubation, the plates were spun at 3000×g for 30 seconds, then sealed with an optical adhesive cover, and luminescence readings were measured with an EnVision Plate Reader (Perkin Elmer).
Data was normalized using zero luminescence for baseline. A four-parameter non-linear regression curve fit was applied to dose-response data in GraphPad Prism data analysis software to determine the half-maximal growth inhibitory concentration (GI50) for each test compound.

| SMILES | GI50 [2] [nM] | GI50 [4] [nM] | GI50 ([4]; Homo sapiens) [nM] | other results |
| --- | --- | --- | --- | --- |
| CCS(=O)(=O)c1ccc(Oc2ccc(CCN3CC4(C3)CN(c3ncc(C(=O)N[C@H]5C(C)(C)[C@H](Oc6ccc(C#N)c(Cl)c6)C5(C)C)cn3)CCO4)cc2)c(-c2cn(C)c(=O)c3[nH]ccc23)c1 [Compound I-262] | < 500 | < 500 | – | GI50 [1]: < 500 nM; GI50 [3]: < 500 nM |
| CC(=O)N(C)c1ccc(Oc2cccc(OCCOC3CCN(c4ncc(C(=O)N[C@H]5C(C)(C)[C@H](Oc6ccc(C#N)c(Cl)c6)C5(C)C)cn4)CC3)c2)c(-c2cn(C)c(=O)c3[nH]ccc23)c1 [Compound I-58] | – | – | 500 to 1500 | GI50 [1]: < 500 nM; GI50 ([2]; Homo sapiens): < 500 nM; GI50 [3]: > 3000 nM |
| Cn1cc(-c2cc(C(C)(C)O)ccc2Oc2ccc(CCC3CCN(c4cnc(C(=O)N[C@H]5C(C)(C)[C@H](Oc6ccc(C#N)c(Cl)c6)C5(C)C)cn4)CC3)nc2)c2cc[nH]c2c1=O [Compound I-341] | < 500 | < 500 | – | GI50 [1]: < 500 nM; GI50 [3]: < 500 nM |
| Cn1cc(-c2cc(C(C)(C)O)ccc2Oc2ccc(N3CC(C4CC5(C4)CN(c4ncc(C(=O)N[C@H]6C(C)(C)[C@H](Oc7ccc(C#N)c(Cl)c7)C6(C)C)cn4)C5)C3)cc2)c2cc[nH]c2c1=O [Compound I-351] | < 500 | < 500 | – | GI50 [1]: < 500 nM; GI50 [3]: < 500 nM |
| Cn1cc(-c2cc(C(C)(C)O)ccc2Oc2ccc(N3CC(CC4CN(c5ccc(C(=O)N[C@H]6C(C)(C)[C@H](Oc7ccc(C#N)c(Cl)c7)C6(C)C)nn5)C4)C3)cc2)c2cc[nH]c2c1=O [Compound I-319] | – | – | < 500 | GI50 [1]: < 500 nM; GI50 ([2]; Homo sapiens): < 500 nM; GI50 [3]: < 500 nM |
| Cn1cc(-c2cc(C(C)(C)O)ccc2OC2CC3CC2CC3OC2CCN(c3ncc(C(=O)N[C@H]4C(C)(C)[C@H](Oc5ccc(C#N)c(Cl)c5)C4(C)C)cn3)CC2)c2cc[nH]c2c1=O (some centres unmarked) [Compound I-253, N-[3-(3-chloro-4-cyano-phenoxy)-2,2,4,4-tetramethyl-cyclobutyl]-2-[4-[5-[4-(1-hydroxy-1-methyl-ethyl)-2-(6-methyl-7-oxo-1H-pyrrolo[2,3-c]pyridin-4-yl)phenoxy]norbornan-2-yl]oxy-1-piperidyl]pyrimidine-5-carboxamide] | – | – | 500 to 1500 | GI50 ([2]; Homo sapiens): < 500 nM |
| Cn1cc(-c2cc(C(C)(C)O)ccc2Oc2ccc(C3(NCC4CCN(c5ncc(C(=O)N[C@H]6C(C)(C)[C@H](Oc7ccc(C#N)c(Cl)c7)C6(C)C)cn5)CC4)COC3)cc2)c2cc[nH]c2c1=O [Compound I-256] | < 500 | < 500 | – | – |
| Cn1cc(-c2cc(C(C)(C)O)ccc2Oc2ccc(F)c(CCCN3CC4(C3)CN(c3ncc(C(=O)N[C@H]5C(C)(C)[C@H](Oc6ccc(C#N)c(Cl)c6)C5(C)C)cn3)C4)c2F)c2cc[nH]c2c1=O [Compound I-247] | < 500 | < 500 | – | – |
| CCS(=O)(=O)c1ccc(Oc2cccc(CCCC3CCN(c4ncc(C(=O)N[C@H]5C(C)(C)[C@H](Oc6ccc(C#N)c(Cl)c6)C5(C)C)cn4)CC3)c2)c(-c2cn(C)c(=O)c3[nH]ccc23)c1 [Compound I-248] | 500 to 1500 | < 500 | – | – |
| Cn1cc(-c2cc(C(C)(C)O)ccc2Oc2ccccc2N2CC(CC3CCN(c4ncc(C(=O)NC5C(C)(C)C(Oc6ccc(C#N)c(Cl)c6)C5(C)C)cn4)CC3)C2)c2cc[nH]c2c1=O (centres unmarked) [Compound I-387, N-[3-(3-chloro-4-cyano-phenoxy)-2,2,4,4-tetramethyl-cyclobutyl]-2-[4-[[1-[2-[4-(1-hydroxy-1-methyl-ethyl)-2-(6-methyl-7-oxo-1H-pyrrolo[2,3-c]pyridin-4-yl)phenoxy]phenyl]azetidin-3-yl]methyl]-1-piperidyl]pyrimidine-5-carboxamide] | – | – | > 3000 | – |
| Cn1cc(-c2cc(C(C)(C)O)ccc2OC(C)(C)CN2CC(OC3CCN(c4ncc(C(=O)N[C@H]5C(C)(C)[C@H](Oc6ccc(C#N)c(Cl)c6)C5(C)C)cn4)CC3)C2)c2cc[nH]c2c1=O [Compound I-254, N-[3-(3-chloro-4-cyano-phenoxy)-2,2,4,4-tetramethyl-cyclobutyl]-2-[4-[1-[2-[4-(1-hydroxy-1-methyl-ethyl)-2-(6-methyl-7-oxo-1H-pyrrolo[2,3-c]pyridin-4-yl)phenoxy]-2-methyl-propyl]azetidin-3-yl]oxy-1-piperidyl]pyrimidine-5-carboxamide] | – | – | > 3000 | GI50 ([2]; Homo sapiens): < 500 nM |
| Cn1cc(-c2cc(C(C)(C)O)ccc2Oc2ccc(N3CC(C4CCN(c5ncc(C(=O)N[C@H]6C(C)(C)[C@H](Oc7ccc(C#N)c(C(F)(F)F)c7)C6(C)C)cn5)CC4)C3)cc2)c2cc[nH]c2c1=O [Compound I-389] | – | < 500 | – | – |
| COc1cc(O[C@H]2C(C)(C)[C@H](NC(=O)c3cnc(N4CCC(C5CN(c6ccc(Oc7ccc(C(C)(C)O)cc7-c7cn(C)c(=O)c8[nH]ccc78)cc6)C5)CC4)nc3)C2(C)C)ccc1C#N [Compound I-385] | – | < 500 | – | – |
| Cn1cc(-c2cc(C(C)(C)O)ccc2Oc2ccc(N3CC(C4CCN(c5cnc(C(=O)N[C@H]6C(C)(C)[C@H](Oc7ccc(C#N)c(Cl)c7)C6(C)C)cn5)CC4)C3)cc2)c2cc[nH]c2c1=O [Compound I-381] | – | 500 to 1500 | – | – |
| Cn1cc(-c2cc(C(C)(C)O)ccc2OC(CCCCN2CCN(c3ncc(C(=O)N[C@H]4C(C)(C)[C@H](Oc5ccc(C#N)c(Cl)c5)C4(C)C)cn3)CC2)C2CC2)c2cc[nH]c2c1=O (some centres unmarked) [Compound I-252] | < 500 | 500 to 1500 | – | – |
| Cn1cc(-c2cc(C(C)(C)O)ccc2Oc2ccc(CC3CC4(CCN(c5ccc(C(=O)N[C@H]6C(C)(C)[C@H](Oc7ccc(C#N)c(Cl)c7)C6(C)C)nc5)CC4)C3)cc2)c2cc[nH]c2c1=O [Compound I-379] | – | – | 1500 to 3000 | – |
| Cn1cc(-c2ccccc2Oc2ccc(N3CC(C4CCN(c5ccc(C(=O)N[C@H]6C(C)(C)[C@H](Oc7ccc(C#N)c(Cl)c7)C6(C)C)nc5)CC4)C3)cc2)c2cc[nH]c2c1=O [Compound I-386] | – | < 500 | – | – |
| Cn1cc(-c2cc(C(C)(C)O)ccc2Oc2ccc(N3CC(C4CCN(c5ncc(C(=O)N[C@H]6C(C)(C)[C@H](Oc7ccc(C#N)c(F)c7)C6(C)C)cn5)CC4)C3)cc2)c2cc[nH]c2c1=O [Compound I-390] | – | < 500 | – | – |
| Cn1cc(-c2ccccc2Oc2ccc(OCC3CCN(c4ncc(C(=O)NC5C(C)(C)C(Oc6ccc(C#N)c(Cl)c6)C5(C)C)cn4)CC3)cc2)c2cc[nH]c2c1=O (centres unmarked) [Compound I-356, N-[3-(3-chloro-4-cyano-phenoxy)-2,2,4,4-tetramethyl-cyclobutyl]-2-[4-[[4-[2-(6-methyl-7-oxo-1H-pyrrolo[2,3-c]pyridin-4-yl)phenoxy]phenoxy]methyl]-1-piperidyl]pyrimidine-5-carboxamide] | – | – | < 500 | – |
| Cn1cc(-c2cc(C(C)(C)O)ccc2Oc2ccccc2)c2cc(C(=O)NC3CC(CC4CCN(c5ccc(C(=O)N[C@H]6C(C)(C)[C@H](Oc7ccc(C#N)c(Cl)c7)C6(C)C)nc5)CC4)C3)[nH]c2c1=O (some centres unmarked) [Compound I-378] | – | > 3000 | – | – |
| Cn1cc(-c2cc(C(C)(C)O)ccc2Oc2ccccc2)c2cc(C(=O)NC3CC(CC4CCN(c5ccc(C(=O)NC6C(C)(C)C(Oc7ccc(C#N)c(Cl)c7)C6(C)C)nc5)CC4)C3)[nH]c2c1=O (centres unmarked) [Compound I-377, N-[3-[[1-[6-[[3-(3-chloro-4-cyano-phenoxy)-2,2,4,4-tetramethyl-cyclobutyl]carbamoyl]-3-pyridyl]-4-piperidyl]methyl]cyclobutyl]-4-[5-(1-hydroxy-1-methyl-ethyl)-2-phenoxy-phenyl]-6-methyl-7-oxo-1H-pyrrolo[2,3-c]pyridine-2-carboxamide] | – | – | > 3000 | – |
| Cn1cc(-c2cc(C(C)(C)O)ccc2Oc2ccc(N3CC(C4CCN(c5ccc(C(=O)N[C@H]6C(C)(C)[C@H](Oc7ccc(C#N)c(Cl)c7)C6(C)C)nc5)CC4)C3)cc2)c2cc[nH]c2c1=O [Compound I-388] | – | < 500 | – | – |
| Cn1cc(-c2ccccc2Oc2ccc(N3CC(CC4CCN(c5ncc(C(=O)N[C@H]6C(C)(C)[C@H](Oc7ccc(C#N)c(Cl)c7)C6(C)C)cn5)CC4)C3)cc2)c2cc[nH]c2c1=O [Compound I-359] | – | > 3000 | – | – |
